Like-named read-outs stand apart in the source and are kept apart here.
Legend:
[1] = tested on: alkaline phosphatase; conditions: TBQ, 37° C., 25 minutes
Description: The following reagents were used for this: • 0.1M aminomethylpropanol buffer, pH 9.5 (AMP Buffer), • CDP-Star® (CDP*, Life Technologies): 6.2 mg/mL (12.5 mM) in AMP Buffer, • ADP-Star® (ADP*, Life Technologies): 1 mg/mL (2.2 mM) in 0.1M AMP Buffer, • ADP*-EE Oxidation mixture: 1 mg/mL (2.3 mM) in 0.1M AMP Buffer, • TBQ: 10× Sapphire II™ chemiluminescence enhancer (Life Technologies), and • Alkaline Phosphatase stock (AP): 8 ng/mL (from 17.4 mg/mL concentrate).
10 μL ADP* or ADP*-EE Oxidation mixture (0.22 or 0.23 mM, respectively), 10 μL TBQ, 80 μL AMP Buffer and 10 μL AP were combined and the luminescence from the mixture was measured continuously at 37° C. for 25 minutes. 1.6 μL CDP* (0.2 mM), 10 μL TBQ, 80 μL AMP Buffer and 10 μL AP were combined and the luminescence from the mixture was measured continuously at 37° C. for 25 minutes.

[2] = Thermal stability of aqueous solutions of reagents; format: physicochemical
Excerpt: The thermal stabilities of aqueous solutions AMPPD®, AMPPD enol ether phosphate (AMPPD-EE) and AMPPD-EE in the presence of Na2MoO4 were examined.

[3] = tested on: alkaline phosphatase; conditions: in the presence of Sapphire II enhancer
Excerpt: Benchmarking experiments compared the light emission (in RLUs) and signal to noise (S:N) of in situ ADP-Star with control dioxetanes CSPD®, ADP-Star®, and CDP-Star®.

[4] = tested on: alkaline phosphatase
Excerpt: Before developing assay conditions with Method B in situ dioxetane generation, we investigated whether the reagents from the oxidation system adversely affected alkaline phosphatase activity. […] Any quenching effects from a singlet oxygen generation/reaction system may be enzyme-specific, and would have to be evaluated for any enzyme/detection substrate pair.

[5] = cited from earlier work

COC(=C1C2CC3CC(C2)CC1C3)c1ccc(Cl)c(OP(=O)([O-])[O-])c1.[Na+].[Na+] [ADP-Star enol ether phosphate]
light emission compared with CDP-Star dioxetane control [1]: higher light emission

COC(=C1C2CC3CC(C2)CC1C3)c1cccc(OP(=O)([O-])[O-])c1.[Na+].[Na+] [AMPPD-EE]
Stability/Storage Conditions (loss) ([2]; 1 month, 55° C.): Minimal loss in 1 month, 55 °C | thermal decomposition ([2]; aqueous solution, 40° C. over 4+ months): virtually no thermal decomposition | thermal decomposition ([2]; aqueous solution, 55° C. over 5+ months): minimal thermal decomposition | thermal decomposition ([2]; in the presence of Na2MoO4 at 40° C.): no thermal decomposition

COC1(c2cccc(OP(=O)(O)O)c2)OOC12C1CC3CC(C1)CC2C3 (stereo not drawn) [AMPPD®, reference compound]
thermal half-life ([2]; aqueous solution, 40° C.): ~40 days | thermal half-life ([2]; aqueous solution, 55° C.): ~10 days

COC1(c2cccc(OP(=O)(O)O)c2)OOC12C1CC3CC2CC(Cl)(C3)C1 (stereo not drawn) [CSPD®]
time reaching glow (maximum light emission) [3]: 30 min

OO [hydrogen peroxide]
effect on alkaline phosphatase activity [4]: does not affect alkaline phosphatase activity | Stability/Storage Conditions ([5]; 35% soln, 1 yr, 25° C.): >99.3% in 1 yr, 25° C.; | Stability/Storage Conditions ([5]; 35% soln, 24 hr, 100° C.): ≥96.0% in 24 hr, 100 °C

[Na+].[Na+].[O]=[Mo](=[O])([O-])[O-] [sodium molybdate]
effect on alkaline phosphatase activity ([4]; AMPPD substrate, TBQ enhancer, 37° C., 30 minutes): significantly quenches alkaline phosphatase activity | light reduction (quenching of alkaline phosphatase activity) ([4]; AMPPD substrate, various amounts of Na2MoO4 stock, 37° C.): up to 85% | alkaline phosphatase activity on lowering concentration ([4]; sodium molybdate <1 mM): restores most of the alkaline phosphatase activity | Stability/Storage Conditions ([5]; solid): “Stable under ordinary conditions of use &
